In US11958831B2, “Pyrazole compounds, pharmaceutical compositions thereof and use thereof” (ARTIVILA (SHENZHEN) INNOVATION CENTER, LTD., priority 2018, dated 2024):

biological target: IRAK4 kinase (Homo sapiens (Human), UniProt Q9NWZ3); experiment: IRAK4 kinase activity assay (mobility shift, Km ATP); format: biochemical; conditions: Km ATP (15.6 μM ATP), 1 nM IRAK4, 60 min room temperature
Procedure: Inhibitory activity (IC50) of the compounds against IRAK4 kinase under Km ATP was detected through mobility spectrum analysis (MSA). IRAK4 kinase was purchased from Carna (Cat. No.: 09-145, batch No.: 14CBS-0020H), and Kinase Substrate 8 was purchased from GL Biochem (Cat. No.: 112396, batch No.: P171207-MJI112396).
The compounds were prepared with DMSO to 100 times the final reaction concentration and diluted to 10 concentrations in sequence at a 3-fold dilution ratio starting from 1 μM. Then 0.25 μL was transferred to a 384-well plate using Echo550. A 1× kinase buffer (50 mM HEPES, pH=7.5, 0.0015% Brij-35, 10 mM MgCl2, 2 mM DTT) was used to prepare a kinase solution of 2.5 times the final concentration. Then 10 μL of the kinase solution of 2.5 times the final concentration was added to each compound well, shaken and mixed uniformly, and incubated at room temperature for 10 min. A 1× kinase buffer was used to prepare a mixed solution of ATP and substrate Kinase Substrate 8 with a concentration of 25/15 times the final concentration. 15 μL of the mixed solution of ATP and the substrate with a concentration of 25/15 times the final concentration were added to each well (the final concentration of IRAK4 kinase was 1 nM, the final concentration of the substrate was 3 μM, and the final concentration of ATP was 15.6 μM), shaken and mixed uniformly, and reacted at room temperature for 60 min. Finally, 30 μL of stopping solution (100 mM HEPES, pH=7.5, 0.0015% Brij-35, 0.2% Coating Reagent #3, 50 mM EDTA) was added to terminate the reaction. CaliperEZ Reader II was used to read data about conversion rates that was then converted into data about inhibition rates. According to the data about the inhibition rate at each concentration, the half maximal inhibitory concentration (IC50) (Table 1) was calculated by a Logit method.

Chain of IRAK4 kinase (Q9NWZ3 whole entry): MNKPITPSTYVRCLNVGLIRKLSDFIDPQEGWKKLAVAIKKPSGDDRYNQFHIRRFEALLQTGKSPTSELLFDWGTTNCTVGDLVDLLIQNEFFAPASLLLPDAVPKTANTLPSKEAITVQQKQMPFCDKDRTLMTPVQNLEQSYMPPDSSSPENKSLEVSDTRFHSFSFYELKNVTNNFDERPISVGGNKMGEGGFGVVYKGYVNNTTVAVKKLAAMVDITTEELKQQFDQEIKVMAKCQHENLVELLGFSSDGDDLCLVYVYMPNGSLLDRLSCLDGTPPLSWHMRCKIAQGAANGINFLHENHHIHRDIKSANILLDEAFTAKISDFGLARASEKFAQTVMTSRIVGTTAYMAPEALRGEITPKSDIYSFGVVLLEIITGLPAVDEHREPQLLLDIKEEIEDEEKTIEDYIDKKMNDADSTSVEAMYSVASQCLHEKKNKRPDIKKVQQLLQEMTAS

SMILES | IC50 [nM]
COC(=O)N1CCC(N2CC(n3cc(NC(=O)c4cccc(-c5cc[nH]n5)n4)c(C(F)F)n3)C2)CC1 [Example 25, Methyl 4-(3-(4-(6-(1H-pyrazol-3-yl)-2-picolinamide)-3-(difluoromethyl)-1H-pyrazol-1-yl)azetidin-1-yl)piperidine-1-carboxylate] | 0.65
CC(=O)N1CCC(N2CC(n3cc(NC(=O)c4cccc(-c5cnn(CC(C)(C)O)c5)n4)c(C(F)F)n3)C2)CC1 [Example 15, N-(1-(1-(1-acetylpiperidin-4-yl)azetidin-3-yl)-3-(difluoromethyl)-1H-pyrazol-4-yl)-6-(1-(2-hydroxy-2-methylpropyl)-1H-pyrazol-4-yl)-2-picolinamide] | 3.9
C=CC(=O)N1CCC(N2CC(n3cc(NC(=O)c4cccc(-c5cc[nH]n5)n4)c(C(F)F)n3)C2)CC1 [Example 23, N-(1-(1-(1-acryloylpiperidin-4-yl)azetidin-3-yl)-3-(difluoromethyl)-1H-pyrazol-4-yl)-6-(1H-pyrazol-3-yl)-2-picolinamide] | 0.63
C[C@H](O)C(=O)N1CCC(N2CC(n3cc(NC(=O)c4cccc(-c5cc[nH]n5)n4)c(C(F)F)n3)C2)CC1 [Example 39, (S)—N-(3-(difluoromethyl)-1-(1-(1-(2-hydroxypropionyl)piperidin-4-yl)azetidin-3-yl)-1H-pyrazol-4-yl)-6-(1H-pyrazol-3-yl)-2-picolinamide] | 0.69
CS(=O)(=O)N1CCC(N2CC(n3cc(NC(=O)c4cccc(-c5cc[nH]n5)n4)c(C(F)F)n3)C2)CC1 [Example 42, N-(3-(difluoromethyl)-1-(1-(1-(methylsulfonyl)piperidin-4-yl)azetidin-3-yl)-1H-pyrazol-4-yl)-6-(1H-pyrazol-3-yl)-2-picolinamide] | 1.2
CC(=O)N1CCC(N2CC(n3cc(NC(=O)c4cccc(-c5cn[nH]c5)n4)c(C(F)F)n3)C2)CC1 [Example 19, N-(1-(1-(1-acetylpiperidin-4-yl)azetidin-3-yl)-3-(difluoromethyl)-1H-pyrazol-4-yl)-6-(1H-pyrazol-4-yl)-2-picolinamide] | 1.9
CC(=O)N1CCC(N2CC(n3cc(NC(=O)c4cccc(-c5cnn(C)c5)n4)c(C(F)F)n3)C2)CC1 [Example 6, N-(1-(1-(1-acetylpiperidin-4-yl)azetidin-3-yl)-3-(difluoromethyl)-1H-pyrazol-4-yl)-6-(1-methyl-1H-pyrazol-4-yl)-2-picolinamide] | 4.2
CC(=O)N1CCC(N2CC(n3cc(NC(=O)c4cccc(-c5cnn(C6(CO)CCC6)c5)n4)c(C(F)F)n3)C2)CC1 [Example 14, N-(1-(1-(1-acetylpiperidin-4-yl)azetidin-3-yl)-3-(difluoromethyl)-1H-pyrazol-4-yl)-6-(1-(1-(hydroxymethyl)cyclobutyl)-1H-pyrazol-4-yl)-2-picolinamide] | 3.2
CC(=O)N1CCC(N2CC(n3cc(NC(=O)c4cccc(-c5cnn(C(C)(C)CO)c5)n4)c(C(F)F)n3)C2)CC1 [Example 16, N-(1-(1-(1-acetylpiperidin-4-yl)azetidin-3-yl)-3-(difluoromethyl)-1H-pyrazol-4-yl)-6-(1-(1-hydroxy-2-methylpropyl-2-yl)-1H-pyrazol-4-yl)-2-picolinamide] | 1.8
CN(C)C(=O)N1CCC(N2CC(n3cc(NC(=O)c4cccc(-c5cn[nH]c5)n4)c(C(F)F)n3)C2)CC1 [Example 20, N-(3-(difluoromethyl)-1-(1-(1-(dimethylcarbamoyl)piperidin-4-yl)azetidin-3-yl)-1H-pyrazol-4-yl)-6-(1H-pyrazol-4-yl)-2-picolinamide] | 3.2
CC(=O)N1CCC(N2CC(n3cc(NC(=O)c4cccc(-c5cnn(C(C)C)c5)n4)c(C(F)F)n3)C2)CC1 [Example 8, N-(1-(1-(1-acetylpiperidin-4-yl)azetidin-3-yl)-3-(difluoromethyl)-1H-pyrazol-4-yl)-6-(1-isopropyl-1H-pyrazol-4-yl)-2-picolinamide] | 1.9

Further lines, results first:

IC50 [nM] | SMILES
3.3 | CCn1cc(-c2cccc(C(=O)Nc3cn(C4CN(C5CCN(C(C)=O)CC5)C4)nc3C(F)F)n2)cn1 [Example 7, N-(1-(1-(1-acetylpiperidin-4-yl)azetidin-3-yl)-3-(difluoromethyl)-1H-pyrazol-4-yl)-6-(1-ethyl-1H-pyrazol-4-yl)-2-picolinamide]
0.68 | CN(C)C(=O)N1CCC(N2CC(n3cc(NC(=O)c4cccc(-c5cc[nH]n5)n4)c(C(F)F)n3)C2)CC1 [Example 28, N-(3-(difluoromethyl)-1-(1-(1-(dimethylcarbamoyl)piperidin-4-yl)azetidin-3-yl)-1H-pyrazol-4-yl)-6-(1H-pyrazol-3-yl)-2-picolinamide]
2 | CC(=O)N1CCC(N2CC(n3cc(NC(=O)c4cccc(-c5cnn(C6(C#N)CCC6)c5)n4)c(C(F)F)n3)C2)CC1 [Example 10, N-(1-(1-(1-acetylpiperidin-4-yl)azetidin-3-yl)-3-(difluoromethyl)-1H-pyrazol-4-yl)-6-(1-(1-cyanocyclobutyl)-1H-pyrazol-4-yl)-2-picolinamide]
1.5 | CN(C)C(=O)N1CCC(N2CC(n3cc(NC(=O)c4cccc(-c5cnn(CC(F)F)c5)n4)c(C(F)F)n3)C2)CC1 [Example 38, 6-(1-(2,2-Difluoroethyl)-1H-pyrazol-4-yl)-N-(3-(difluoromethyl)-1-(1-(1-(dimethylcarbamoyl)piperidin-4-yl)azetidin-3-yl)-1H-pyrazol-4-yl)-2-picolinamide]
0.54 | CCC(=O)N1CCC(N2CC(n3cc(NC(=O)c4cccc(-c5cc[nH]n5)n4)c(C(F)F)n3)C2)CC1 [Example 26, N-(3-(difluoromethyl)-1-(1-(1-propionylpiperidin-4-yl)azetidin-3-yl)-1H-pyrazol-4-yl)-6-(1H-pyrazol-3-yl)-2-picolinamide]
4.3 | CC(=O)N1CCC(N2CC(n3cc(NC(=O)c4cccc(-c5cnn(C(F)F)c5)n4)c(C(F)F)n3)C2)CC1 [Example 5, N-(1-(1-(1-acetylpiperidin-4-yl)azetidin-3-yl)-3-(difluoromethyl)-1H-pyrazol-4-yl)-6-(1-(difluoromethyl)-1H-pyrazol-4-yl)-2-picolinamide]
2.5 | C=CC(=O)N1CCC(N2CC(n3cc(NC(=O)c4cccc(-c5cn[nH]c5)n4)c(C(F)F)n3)C2)CC1 [Example 22, N-(1-(1-(1-acryloylpiperidin-4-yl)azetidin-3-yl)-3-(difluoromethyl)-1H-pyrazol-4-yl)-6-(1H-pyrazol-4-yl)-2-picolinamide]
1.7 | COC(=O)N1CCC(N2CC(n3cc(NC(=O)c4cccc(-c5cn[nH]c5)n4)c(C(F)F)n3)C2)CC1 [Example 21, Methyl 4-(3-(4-(6-(1H-pyrazol-4-yl)-2-picolinamide)-3-(difluoromethyl)-1H-pyrazol-1-yl)azetidin-1-yl)piperidine-1-carboxylate]
0.67 | COC(=O)N1CCC(N2CC(n3cc(NC(=O)c4cccc(-c5cnn(C(C)(C)CN)c5)n4)c(C(F)F)n3)C2)CC1 [Example 18, Methyl 4-(3-(4-(6-(1-(1-amino-2-methylpropan-2-yl)-1H-pyrazol-4-yl)-2-picolinamide)-3-(difluoromethyl)-1H-pyrazol-1-yl)azetidin-1-yl)piperidine-1-carboxylate]
